Data taken from patent US12427346B2, “P62 ligand compound, and composition for preventing, ameliorating or treating proteinopathies comprising the same” (AUTOTAC INC., priority 2018, dated 2025).
Structures can show the parent of a compound that is named as a salt.

How the values were obtained:
Format in all cases: cell-based, human
[1] = system: p62 and LC3; experiment: Autophagy activity of control compounds by immunofluorescence staining and confocal microscopy (Experimental Example 6); conditions: different concentrations, FIG. 7
Description: In order to confirm p62 protein activity and the activity level of autophagy phenomenon of control compounds (YOK-A-1104, YOK-G-1104, YTK-1005, YTK-1105-1), immunofluorescence staining was performed in the same manner as in Experimental Example 4 by using p62 and LC3 as markers. YOK-A-1104 and YOK-G-1104 are compounds having the following structures.
The compounds were treated at different concentrations, and intracellular puncta of p62 or LC3, that is, the degree to which autophagosome was formed and p62 was delivered was observed by a confocal microscopy.

[2] = system: LC3; experiment: Autophagy activity in cultured cells by immunoblotting, treatment time (Experimental Example 3); conditions: HeLa cells; 5 μM for 1, 3, 6, 12, 24, 48 hours or 10 μM for 24 hours; immunoblot, FIG. 4
Description: In order to investigate the autophagy activity efficacy by the compounds (Examples 1-25), immunoblotting was performed in the same manner as in Experimental Example 2 using LC3 as a marker. As for the difference, in order to evaluate the treatment time required for activation and the activity retention time, 5 μM of the representative compounds selected among the present compounds (Example 5 (YTK-1005), Example 6 (YTK-1205), Example 7 (YTK-1305), Example 2 (YTK-2205), Example 3 (YTK-3305), Example 14 (YTK-1108), Example 8 (YTK-105), Example 9 (YTK-205)) were treated for 1, 3, 6, 12, 24, 48 hours. On the other hand, 10 μM of the representative compounds selected among the present compounds (Example 10 (YT 5-1), Example 11 (YT 5-2), Example 16 (YT 8-8), Example 15 (YT 8-7), Example 17 (YTK-107), Example 18 (YTK-207), Example 20 (ATB10041), Example 21 (ATB10042), Example 22 (ATB10043), Example 23 (ATB10044), Example 24 (ATB10045), Example 25 (ATB10046)) were treated for 24 hours.

[3] = system: LC3; experiment: Autophagy activity in cultured cells by immunoblotting, concentration series (Experimental Example 2); conditions: HeLa cells; 1, 2, 5, 10 and 20 μM, 24 hours; immunoblot, FIG. 3
Description: In order to evaluate the autophagy activity efficacy by the compounds (Examples 1-25), HeLa cell line, which is a cell line derived from a cervical cancer patient, was cultured using a DMEM medium containing 10% FBS and 1% streptomycin/penicillin in an incubator with 5% carbon dioxide. As the representative compounds among the present compounds, the compounds of Examples 1, 2, 3, 5, 6, 7, 8, 9, 12 and 13 (Example 5 (YTK-1005), Example 1 (YTK-1105), Example 6 (YTK-1205), Example 7 (YTK-1305), Example 2 (YTK-2205), Example 3 (YTK-3305), Example 8 (YTK-105), Example 9 (YTK-205), Example 14 (YTK-1108), Example 12 (YT 5-7), Example 13 (YT 5-8)), Example 20 (ATB10041), Example 21 (ATB10042), Example 22 (ATB10043), Example 23 (ATB10044), Example 24 (ATB10045), and Example 25 (ATB10046)) were selected. In order to measure autophagy activity according to the treatment with these selected representative compounds, the respective cells were dispensed into 6 well plates. Additional cultures were performed for 24 hours so that the cells were completely attached to the surface of the plate. To find the concentration at which the respective compounds could increase the phenomenon of autophagy, the test compounds were diluted at 1, 2, 5, 10 and 20 μM and treated. After treatment with the respective compounds, the cells were cultured again in a cell incubator for 24 hours, and then the cells were collected. To extract proteins from the collected cells, 100 ul of lysis buffer (20 mM Tris (pH 7.4), 150 mM NaCl, 1% Triton X-100, 2 mM NaF, 2 mM EDTA, 2 mM beta-glycerophosphate, 5 mM sodium orthovanadate, 1 mM PMSF, leupeptin, aprotinin) was injected into each sample, and cells were lysed. Based on the measured total protein concentration, a sample buffer was added to each sample and allowed to react at 100° C. for 5 minutes. 5 ul was taken from the samples after the reaction, and dispensed into each well of acrylamide gel, and then immunoblotting was performed.

[4] = system: p62 and LC3; experiment: Autophagy activity by immunofluorescence staining and confocal microscopy (Experimental Example 5); conditions: HeLa cells, 5 uM, 24 hours, FIG. 6
Description: In order to confirm the p62 protein activity and the activity level of autophagy phenomenon by the compounds (Examples 1-25), immunofluorescence staining was performed using p62 and LC3 as markers. In order to confirm the p62 activity and the activity level of autophagy phenomenon by new p62 ligands and isomers thereof in cultured cells, HeLa cell line, which is a cell line derived from cervical cancer patient, was treated with the novel p62 ligand compounds (YTK-1205, YTK-1305, YTK-2205, YTK-3305, YTK-105, YTK-205, YT 5-1, YT 9-1, YT 5-2, YT 9-2, YT 8-2, YT 8-1, YTK-107, YTK-207) and cultured. Thereafter, as markers of the autophagy phenomenon, the expression level and location of LC3 puncta and the local co-existence with p62 puncta were observed.
For immunofluorescence staining, a cover glass was placed on a 24-well plate, cells were dispensed, cultured for 24 hours, and then treated with 5 uM of the novel p62 ligands according to the present invention. For the action of the compounds, additional cultures were performed for 24 hours, and then the medium was removed. Cells were fixed using formaldehyde at room temperature. In order to prevent non-specific staining, the cells were allowed to react with a blocking solution at room temperature for 1 hour, and then treated with LC3 antibody diluted at a certain ratio using the blocking solution, and allowed to reacted at room temperature for 1 hour. The antibody-treated cells were washed three times with PBS, and goat-derived secondary antibody was diluted at a certain ratio using the blocking solution, and then allowed to react at room temperature for 30 minutes. The cells were washed again with PBS three times, and for intracellular nuclear staining, the expression level, intracellular puncta formation and intracellular coexistence level of p62 and LC3 were observed through a confocal microscopy after DAPI staining.

SMILES | p62 activation and oligomerization, delivery to autophagosome, autophagy activity (p62 and LC3 puncta) of control compounds [1] | autophagy activity (level of LC3) [2] | autophagy activity (level of LC3) [3] | p62 activation and oligomerization, delivery to autophagosome, autophagy activity (p62 and LC3 puncta, local coexistence) [4]
CCOC(=O)C(C)NC[C@@H](O)COc1ccc(OCc2ccccc2)c(OCc2ccccc2)c1 (stereo partly drawn) [YOK ALA-1104, Ethyl (R)-(3-(3,4-bis(benzyloxy)phenoxy)-2-hydroxypropyl)alanineate] | allow the activation and oligomerization of p62 proteins and then show the efficacy of delivering them to autophagosome and simultaneously increasing autophagy activity | – | – | –
COC(=O)CNC[C@@H](O)COc1ccc(OCc2ccccc2)c(OCc2ccccc2)c1 [YOK R-Gly-1104, Methyl (R)-(3-(3,4-bis(benzyloxy)phenoxy)-2-hydroxypropyl)glycineate] | allow the activation and oligomerization of p62 proteins and then show the efficacy of delivering them to autophagosome and simultaneously increasing autophagy activity | – | – | –
OCCCCc1ccc(OCc2ccccc2)c(OCc2ccccc2)c1 [YTK HCl-1105-1, 4-(3,4-bis(benzyloxy)phenyl)butan-1-ol] | allow the activation and oligomerization of p62 proteins and then show the efficacy of delivering them to autophagosome and simultaneously increasing autophagy activity | – | – | –
OCCNCc1cccc(OCc2ccccc2)c1 [YTK-105, 2-((3-(benzyloxy)benzyl)amino)ethan-1-ol] | – | increasing the autophagy activity | increasing the autophagy activity | allow the activation and oligomerization of p62 proteins, and then show the efficacy of delivering them to autophagosome and simultaneously increasing autophagy activity
OCCNCc1cccc(OCCc2ccccc2)c1 [YTK-205, 2-((3-(phenethoxy)benzyl)amino)ethan-1-ol] | – | increasing the autophagy activity | increasing the autophagy activity | allow the activation and oligomerization of p62 proteins, and then show the efficacy of delivering them to autophagosome and simultaneously increasing autophagy activity
OCCNCc1ccc(OCc2ccccc2)c(O)c1 [YTK-HCl-1005, 2-(benzyloxy)-5-(((2-hydroxyethyl)amino)methyl)phenol] | allow the activation and oligomerization of p62 proteins and then show the efficacy of delivering them to autophagosome and simultaneously increasing autophagy activity | increasing the autophagy activity | increasing the autophagy activity | –
